Data from patent publication US10669268B2, “Bicyclic derivatives” (Hoffmann-La Roche Inc., priority 2012, dated 2020).
pIC50: −log10 of the molar value. Where a name gives a salt, the structure may show the parent alone.

Target: ATX (human His-tagged) (Homo sapiens (Human), UniProt Q13822)
Assay: Human ATX enzyme inhibition assay (fluorescence quenching, MR121 substrate)
Format: biochemical
Conditions: 30 nM ATX, 1 μM MR121 substrate, 30° C., pH 8.0
Summary of the method: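 Fluorescence-quenching assay using MR121 substrate at 1 μM final, incubated 15 min at 30 °C. Buffer was 50 mM Tris-HCl pH 8.0 with 140 mM NaCl, 5 mM KCl, 1 mM CaCl2, 1 mM MgCl2 and 0.01% Triton X-100.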

Q: How did the pIC50 turn out when `O=C(CCc1ccccc1C1CC1)N1CC[C@@H]2CN(C(=O)c3ccc4[nH]nnc4c3)C[C@@H]2CC1` [Example 17.19, 1-((3aR,8aS)-2-(1H-benzo[d][1,2,3]triazole-5-carbonyl)octahydropyrrolo[3,4-d]azepin-6(7H)-yl)-3-(2-cyclopropylphenyl)propan-1-one] was run?
A: 7.92

Q: `COc1cc(CCC(=O)N2C[C@@H]3CN(C(=O)c4ccc5[nH]nnc5c4)C[C@H]3C2)cc(OC(F)(F)F)c1` [Example 17.20, 1-[(3aR,6aR)-5-(1H-benzotriazole-5-carbonyl)-1,3,3a,4,6,6a-hexahydropyrrolo[3,4-c]pyrrol-2-yl]-3-[3-methoxy-5-(trifluoromethoxy)phenyl]propan-1-one] was tested. Which pIC50 did it give?
A: 8.70

Q: `O=C(/C=C/c1ccc(OC(F)(F)F)cc1)N1CC[C@@H]2CN(C(=O)[C@@H]3Cc4[nH]cnc4CN3)C[C@@H]2CC1` [Example 18, (E)-3-[4-(Trifluoro-methoxy)-phenyl]-1-[(3aS,8aR)-2-((S)-4,5,6,7-tetrahydro-1H-imidazo[4,5-c]pyridine-6-carbonyl)-octahydro-pyrrolo[3,4-d]azepin-6-yl]-prop-2-en-1-one hydrochloride] was tested. Which pIC50 did it give?
A: 5.17

Q: With `Cc1ccc(C(C)C)c(OCC(=O)N2C[C@@H]3CN(C(=O)c4ccc5[nH]nnc5c4)C[C@H]3C2)c1` [Example 19, 1-[(3aS,6aS)-5-(1H-benzotriazole-5-carbonyl)-hexahydro-pyrrolo[3,4-c]pyrrol-2-yl]-2-(2-isopropyl-5-methyl-phenoxy)-ethanone] as the molecule, how does the pIC50 read?
A: 8.15

Q: `O=C(COc1ccc(OC(F)(F)F)cc1Br)N1C[C@@H]2CN(C(=O)c3ccc4[nH]nnc4c3)C[C@H]2C1` [Example 19.01, 1-[(3aS,6aS)-5-(1H-benzotriazole-5-carbonyl)-hexahydro-pyrrolo[3,4-c]pyrrol-2-yl]-2-(2-bromo-4-trifluoromethoxy-phenoxy)-ethanone] was tested. Which pIC50 did it give?
A: 7.92

Q: `O=C(c1ccc(-c2ccc(Cl)cc2)cc1)N1C[C@@H]2CN(C(=O)c3ccc4[nH]nnc4c3)C[C@H]2C1` [Example 19.02, (1H-benzotriazol-5-yl)-[(3aR,6aR)-5-(4′-chloro-biphenyl-4-carbonyl)-hexahydro-pyrrolo[3,4-c]pyrrol-2-yl]-methanone] was tested. Which pIC50 did it give?
A: 8.15

Q: How did the pIC50 turn out when `CC(C)c1cc(C#N)ccc1OCC(=O)N1C[C@@H]2CN(C(=O)c3ccc4[nH]nnc4c3)C[C@H]2C1` [Example 19.03, 4-{2-[(3aS,6aS)-5-(1H-benzotriazole-5-carbonyl)-hexahydro-pyrrolo[3,4-c]pyrrol-2-yl]-2-oxo-ethoxy}-3-isopropyl-benzonitrile] was run?
A: 8.10

Q: With `CC(=O)c1ccccc1OCC(=O)N1C[C@@H]2CN(C(=O)c3ccc4[nH]nnc4c3)C[C@H]2C1` [Example 19.04, 2-(2-acetyl-phenoxy)-1-[(3aS,6aS)-5-(1H-benzotriazole-5-carbonyl)-hexahydro-pyrrolo[3,4-c]pyrrol-2-yl]-ethanone] as the molecule, how does the pIC50 read?
A: 5.77

Q: How did the pIC50 turn out when `Cc1cc(OCC(=O)N2C[C@@H]3CN(C(=O)c4ccc5[nH]nnc5c4)C[C@H]3C2)c(C(C)C)cc1C#N` [Example 19.05, 4-{2-[(3aS,6aS)-5-(1H-benzotriazole-5-carbonyl)-hexahydro-pyrrolo[3,4-c]pyrrol-2-yl]-2-oxo-ethoxy}-5-isopropyl-2-methyl-benzonitrile] was run?
A: 8.30

Q: With `O=C(c1ccc2ccccc2c1)N1C[C@@H]2CN(C(=O)c3ccc4[nH]nnc4c3)C[C@H]2C1` [Example 19.06, (1H-benzotriazol-5-yl)-[(3aR,6aR)-5-(naphthalene-2-carbonyl)-hexahydro-pyrrolo[3,4-c]pyrrol-2-yl]-methanone] as the molecule, how does the pIC50 read?
A: 6.60

Q: With `COc1cc(C(=O)N2C[C@@H]3CN(C(=O)c4ccc5[nH]nnc5c4)C[C@H]3C2)cc2ccccc12` [Example 19.07, (1H-benzotriazol-5-yl)-[(3aS,6aS)-5-(4-methoxy-naphthalene-2-carbonyl)-hexahydro-pyrrolo[3,4-c]pyrrol-2-yl]-methanone] as the molecule, how does the pIC50 read?
A: 7.62

Q: `CCOc1cc(C#N)ccc1OCC(=O)N1C[C@@H]2CN(C(=O)c3ccc4[nH]nnc4c3)C[C@H]2C1` [Example 19.08, 4-{2-[(3aS,6aS)-5-(1H-benzotriazole-5-carbonyl)-hexahydro-pyrrolo[3,4-c]pyrrol-2-yl]-2-oxo-ethoxy}-3-ethoxy-benzonitrile] was tested. Which pIC50 did it give?
A: 7.44

Q: How did the pIC50 turn out when `O=C(CCc1ccc(OC(F)(F)F)c(F)c1)N1C[C@@H]2CN(C(=O)c3ccc4[nH]nnc4c3)C[C@H]2C1` [Example 19.09, 1-[(3aR,6aR)-5-(1H-benzotriazole-5-carbonyl)-hexahydro-pyrrolo[3,4-c]pyrrol-2-yl]-3-(3-fluoro-4-trifluoromethoxy-phenyl)-propan-1-one] was run?
A: 8.00

Q: With `CC(C)c1cc(Cl)ccc1OCC(=O)N1C[C@@H]2CN(C(=O)c3ccc4[nH]nnc4c3)C[C@H]2C1` [Example 19.10, 1-[(3aS,6aS)-5-(1H-benzotriazole-5-carbonyl)-hexahydro-pyrrolo[3,4-c]pyrrol-2-yl]-2-(4-chloro-2-isopropyl-phenoxy)-ethanone] as the molecule, how does the pIC50 read?
A: 8.22

Q: How did the pIC50 turn out when `O=C(c1ccc(-c2ccc(Cl)cc2)cc1)N1C[C@@H]2CN(C(=O)[C@@H]3CCc4[nH]nnc4C3)C[C@H]2C1` [Example 19.11, [(3aS,6aS)-5-(4′-chloro-biphenyl-4-carbonyl)-hexahydro-pyrrolo[3,4-c]pyrrol-2-yl]-(R)-4,5,6,7-tetrahydro-1H-benzotriazol-5-yl-methanone] was run?
A: 8.10

Q: `O=C(CCc1ccc(OC(F)(F)F)cc1)N1C[C@H]2CN(C(=O)c3ccc4[nH]nnc4c3)C[C@@H]2C1` [Example 19.12, 1-[(3aS,6aS)-5-(1H-benzotriazole-5-carbonyl)-hexahydro-pyrrolo[3,4-c]pyrrol-2-yl]-3-(4-trifluoromethoxy-phenyl)-propan-1-one] was tested. Which pIC50 did it give?
A: 8.00

Q: With `O=C(COc1ccccc1C1CCCO1)N1C[C@@H]2CN(C(=O)c3ccc4[nH]nnc4c3)C[C@H]2C1` (stereo partly drawn) [Example 19.14, 1-[(3aS,6aS)-5-(1H-benzotriazole-5-carbonyl)-hexahydro-pyrrolo[3,4-c]pyrrol-2-yl]-2-[2-(tetrahydro-furan-2-yl)-phenoxy]-ethanone] as the molecule, how does the pIC50 read?
A: 6.56

Q: With `COc1cc(C(=O)N2C[C@H]3CN(C(=O)c4ccc5[nH]nnc5c4)C[C@@H]3C2)cc2ccccc12` [Example 19.15, (1H-benzotriazol-5-yl)-[(3aR,6aR)-5-(4-methoxy-naphthalene-2-carbonyl)-hexahydro-pyrrolo[3,4-c]pyrrol-2-yl]-methanone] as the molecule, how does the pIC50 read?
A: 7.70

Q: How did the pIC50 turn out when `CC(C)(C)c1ccccc1OCC(=O)N1C[C@@H]2CN(C(=O)c3ccc4[nH]nnc4c3)C[C@H]2C1` [Example 19.16, 1-[(3aS,6aS)-5-(1H-benzotriazole-5-carbonyl)-hexahydro-pyrrolo[3,4-c]pyrrol-2-yl]-2-(2-tert-butyl-phenoxy)-ethanone] was run?
A: 7.51

Q: With `O=C(c1ccc2[nH]nnc2c1)N1C[C@H]2CN(C(=O)[C@H]3CC[C@H](c4ccc(Cl)cc4)CC3)C[C@@H]2C1` [Example 19.17, [(3aR,6aR)-5-(1H-benzotriazole-5-carbonyl)-hexahydro-pyrrolo[3,4-c]pyrrol-2-yl]-[trans-4-(4-chloro-phenyl)-cyclohexyl]-methanone] as the molecule, how does the pIC50 read?
A: 8.00

Q: With `Cc1cc(CCC(=O)N2C[C@@H]3CN(C(=O)c4ccc5[nH]nnc5c4)C[C@H]3C2)c(C(C)C)cc1C#N` [Example 19.21, 4-[3-[(3aR,6aR)-5-(1H-benzotriazole-5-carbonyl)-1,3,3a,4,6,6a-hexahydropyrrolo[3,4-c]pyrrol-2-yl]-3-oxopropyl]-2-methyl-5-propan-2-ylbenzonitrile] as the molecule, how does the pIC50 read?
A: 8.52

Q: How did the pIC50 turn out when `CC(C)c1cc(C#N)ccc1CCC(=O)N1C[C@@H]2CN(C(=O)c3ccc4[nH]nnc4c3)C[C@H]2C1` [Example 19.22, 4-[3-[(3aR,6aR)-5-(1H-benzotriazole-5-carbonyl)-1,3,3a,4,6,6a-hexahydropyrrolo[3,4-c]pyrrol-2-yl]-3-oxopropyl]-3-propan-2-ylbenzonitrile] was run?
A: 8.70

Q: How did the pIC50 turn out when `O=C(c1ccc2[nH]nnc2c1)N1C[C@H]2CN(C(=O)C3CCN(c4ccc(Cl)cc4)CC3)C[C@@H]2C1` [Example 19.23, [(3aR,6aR)-5-[1-(4-chlorophenyl)piperidine-4-carbonyl]-1,3,3a,4,6,6a-hexahydropyrrolo[3,4-c]pyrrol-2-yl]-(1H-benzotriazol-5-yl)methanone] was run?
A: 7.60

Q: How did the pIC50 turn out when `CC(C)Oc1cc(C(=O)N2C[C@@H]3CN(C(=O)[C@@H]4CCc5[nH]nnc5C4)C[C@H]3C2)cc2ccccc12` [Example 19.24, [(3aS,6aS)-5-[(5R)-4,5,6,7-tetrahydro-1H-benzotriazole-5-carbonyl]-1,3,3a,4,6,6a-hexahydropyrrolo[3,4-c]pyrrol-2-yl]-(4-propan-2-yloxynaphthalen-2-yl)methanone] was run?
A: 8.15

Q: With `CC(C)Oc1cc(C(=O)N2C[C@@H]3CN(C(=O)[C@@H]4CCc5[nH]nnc5C4)C[C@H]3C2)nc2ccccc12` [Example 19.25, [(3aS,6aS)-5-[(5R)-4,5,6,7-tetrahydro-1H-benzotriazole-5-carbonyl]-1,3,3a,4,6,6a-hexahydropyrrolo[3,4-c]pyrrol-2-yl]-(4-propan-2-yloxyquinolin-2-yl)methanone] as the molecule, how does the pIC50 read?
A: 7.82

Q: With `O=C(CCc1ccc(OC(F)(F)F)cc1F)N1C[C@@H]2CN(C(=O)[C@@H]3CCc4[nH]nnc4C3)C[C@H]2C1` [Example 19.26, 1-[(3aR,6aR)-5-[(5R)-4,5,6,7-tetrahydro-1H-benzotriazole-5-carbonyl]-1,3,3a,4,6,6a-hexahydropyrrolo[3,4-c]pyrrol-2-yl]-3-[2-fluoro-4-(trifluoromethoxy)phenyl]propan-1-one] as the molecule, how does the pIC50 read?
A: 8.30

Q: `Cc1cc(OCC(=O)N2C[C@@H]3CN(C(=O)[C@@H]4CCc5[nH]nnc5C4)C[C@H]3C2)c(C(C)C)cc1C#N` [Example 19.27, 4-[2-[(3aS,6aS)-5-[(5R)-4,5,6,7-tetrahydro-1H-benzotriazole-5-carbonyl]-1,3,3a,4,6,6a-hexahydropyrrolo[3,4-c]pyrrol-2-yl]-2-oxoethoxy]-2-methyl-5-propan-2-ylbenzonitrile] was tested. Which pIC50 did it give?
A: 8.22
